Biological target: Lysine-specific histone demethylase 1A (Homo sapiens, UniProt O60341)
Experiment: In Vitro Enzyme Inhibition Assay - LSD-1

IC50: < 0.1 µM
SMILES: CN(C)C1CCN(c2nc(-c3ccc(C#N)c(F)c3)c(C3=CC4C=NN(C)C4C=C3)c(=O)n2C)CC1 (stereo unspecified) [US10548896, Example 72]

Source: BindingDB's records for patent US10548896 (Celgene Quanticel Research, 2020)
